Data set [1] has as its system isolated rat hepatocytes. As to the kind of experiment: Glycogenolysis inhibition in isolated rat hepatocytes. The note with it: mean ± S.D. of three, NI means no inhibition. The class given is cell-based. From the text:
(§1) To evaluate the effects of all compounds in cells, the glycogenolysis assays were established in both rat and human liver cells based on the published method. […] The inhibitory activities of the derivatives of PSN-357 (e.g. 25–28) were also explored. It is not surprising that the derivatives still retained micromolar inhibitory activities. Introduction of steric bulks to the hydroxyl group (e.g. 33, 40, 42, 48) led to a complete loss of activity. Data analysis indicated no clear SAR for the substitutents in the cell-based assays.
(§2) The inhibition of hepatic glycogenolysis was monitored by the measurement of liver glycogen, which was done quantitatively by the anthrone reagent (Sigma) colorimetric method based on the published method. Isolated rat hepatocytes or HepG2 cells (Sigma) were treated with the test compound or DMSO solvent (final concentration, 0.10%), followed by 60-min incubation with 0.3 nM glucagon (GGN). Assays were terminated by centrifugation, and cells were digested with 30% KOH followed by glycogen determination. The IC50 values were estimated by fitting the inhibition data to a dose-dependent curve using a logistic derivative equation.

Data set [2] relates to HepG2 cells. As to the kind of experiment: Glycogenolysis inhibition in HepG2 cells. The class given is cell-based, human. The note with it: HepG2 cells, 60-min incubation with 0.3 nM glucagon, mean ± S.D. of three, NI means no inhibition, read-out: IC50 (glycogenolysis inhibition, HepG2 cells).
From the text: as §1, §2

Data set [3] is described as follows: Stability in mouse plasma. The note with it: 2 μM, 37 °C, 120-min test. It counts as in vitro ADME. How it is done: Frozen plasma from male C57 BL/6 mice was incubated for 5 min at 37 °C before the addition of the test compound. Then prepared 2 μM incubation sample, and aliquots of the incubation mixtures (100 μL) were taken at predetermined time points (10, 30, 60, 120 min) at 37 °C. After incubation, the mixtures was added 400 μL of 50% ACN/50% MeOH containing internal standard (IS, 200 ng/mL Tolbutamide and 20 ng/mL Buspirone) to each sample tube and then centrifuged at 13000 rpm for 8 min. Blank incubations in the absence of the test compound were also performed. The analyses of test compounds were performed by LC-MS/MS analysis.

Data set [4] can be described thus: Stability in mouse liver microsomes (MLM). It counts as in vitro ADME. To be noted: for CLint scaled at 10 μM / half-life at 10 μM / microsomal CLint at 10 μM: C57BL/6, pH 7.4, n = 3. For orientation: Liver microsomes are a subcellular fraction often used to study metabolism.
Data set [5] can be described thus: Biodistribution and pharmacokinetics in plasma and liver after intravenous administration in mice. It counts as in vivo. The note with it: 5 mg/kg intravenous; for AUC(0-t) / Cmax: iv. How it is done:
Based on the results of the potency and in vitro stability studies, conjugate 6 was selected for in vivo pharmacokinetic analysis following a single intravenous injection of 5 mg/kg in male C57 BL/6. Doses of PSN-357 intravenous were used as standard regimens for comparison.
Male C57 BL/6 mice (18–20 g, 5–6 weeks old) were provided by the Laboratory Animal Center of Academy of Military Medical Science of People’s Liberation Army, and were reared in standard rodent cages in animal house of Chengde Medical University, under the condition of a constant temperature of 24 °C (±2 °C) and a 12 h light/dark cycle. PSN-357 and conjugate 6 were injected through the caudal vein. For each sampling time point, three mice were treated with a single dose of either PSN-357 or conjugate 6 at 5 mg/kg in 10% DMSO/saline solutions. Blood and liver samples were taken at 0.0833, 0.25, 0.5, 1, 2, 4, 6 and 24 h following intravenous administration, and stored at −80 °C until analysis. Aliquots of all biological matrixes were deproteinized with a mixture of methanol/acetonitrile (1:1). The suspension was vortexed, mixed, and centrifuged at 13000 rpm for 10 min. The organic phase was injected into the LC-MS/MS system. PK calculations and statistical comparisons on PK data were performed according to a non-compartmental kinetic model with validated software (Kinetica™ version 5.1, Thermo Electron Corporation, USA).

The test system of data set [6] is leptin-deficient ob/ob mice. As to the kind of experiment: Glucose lowering in vivo in diabetic ob/ob mice. The note with it: 50 mg/kg p.o.; for hypoglycemic effect (in words): 0-24 h. Here is the method: In vivo efficacy of compound PSN-357 and conjugate 6 were studied on leptin-deficient ob/ob mice. Metformin was chosen as a positive control. […] Especially, there was still significant decrease in BG levels by conjugate 6 up to 6 h after administration. The effect might be due to the fact that 6 acts in a sustained release and longer acting manners. It is noteworthy that the findings are highly consistent with the results from in vivo pharmacokinetic studies.
Five- to six-week old obese, diabetic ob/ob mice (male C57BL/6 J) and their lean, nondiabetic male C57BL/6 J littermates were provided by the Model Animal Research Center of Nanjing University, and housed under standard animal care practices with ad libitum access to food and water throughout the procedures. After 1 week acclimation, blood was collected from the retroorbital sinus for plasma glucose determination, and mice were randomized to groups with similar mean ± SD. Mice were then dosed p.o. daily for 4 days with vehicle consisting of DMSO/PEG400/H-β-CD (1:3:6, v/v/v). On day 5, mice were treated p.o. with PSN-357 (50 mg/kg) or conjugate 6 (50 mg/kg) or vehicle, then bled at 0, 1, 2, 3, 6 and 24 h post-dose for plasma glucose determination. Statistical analysis of the hypoglycemic effect was determined by unpaired t test with the ob/ob mice vehicle treated group.

The mark [7] stands for this setting: male, C57 BL/6, mouse, liver tissue, read-out: MRT0-t, liver.
[8] abbreviates: male, C57 BL/6, mouse, liver, 5 mg/kg, liver tissue, read-out: AUC0-t, liver.
Where [9] appears, read: male, C57 BL/6, mouse, plasma, read-out: MRT0-t, plasma.
Setting [10] is: male, C57 BL/6, mouse, plasma, 5 mg/kg.
Setting [11] is: male, C57 BL/6, mouse, plasma, 5 mg/kg, plasma, read-out: AUC0-t, plasma.

Like-named read-outs stand apart in the source and are kept apart here.

For the compound `C[C@H](CCC(=O)N[C@@H](CC(=O)O)C(=O)OC1CCN(C(=O)[C@H](Cc2ccc(F)cc2)NC(=O)c2cc3cc(Cl)ncc3[nH]2)CC1)[C@H]1CC[C@H]2[C@@H]3[C@H](O)C[C@@H]4C[C@H](O)CC[C@]4(C)[C@H]3C[C@H](O)[C@]12C` [Conjugate 6], the IC50 in data set [1] (Rattus norvegicus, Hepatocyte, 1 h, read-out: IC50 (glycogenolysis inhibition, rat hepatocytes), isolated rat hepatocytes, 60-min incubation with 0.3 nM glucagon) is 13.4 µM; in data set [1] (read-out: IC50 (glycogenolysis inhibition, rat hepatocytes), isolated rat hepatocytes, 60-min incubation with 0.3 nM glucagon), 13.4 ± 2.55 µM; in data set [2], 6.12 ± 1.38 µM; in data set [2] (Homo sapiens, HepG2, 1 h), 6.1 µM. In data set [3], the “degradation in mouse plasma” value was roughly 12%. Also, the “metabolic stability in MLM (in words)” value in data set [4] is reported as “considerable metabolic stability”. Moreover, the CLint scaled at 10 μM in data set [4] turned out to be 64.9 mL/min/kg. In data set [4], the half-life at 10 μM amounted to 1.41 h. In data set [4], the microsomal CLint at 10 μM was 16.4 µL/min/mg. The “Cmax, liver” value in data set [5] (liver tissue) was found to be 3094.55 ng/mL. Moreover, the MRT last came to 4.42 h in data set [5] (setting [7]) and 7.52 h in data set [5] (setting [9]). The AUC(0-t) in data set [5] (setting [8]) came to 3980 ng·h/mL; in data set [5] (setting [11]), 1520 ng·h/mL. Further, the concentration at 240 min in data set [5] (male, C57 BL/6, mouse, plasma, 240 min, read-out: plasma concentration at 240 min after dosing) was 97 ng/mL. Further, the peak level in data set [5] (setting [10]) (Cmax) was 726 ng/mL. Moreover, in data set [5] (plasma, 5 mg/kg), the “Cmax, plasma” value is reported as 726.2 ng/mL. In addition, the “hypoglycemic effect (in words)” value in data set [6] (n = 10, 50 mg/kg) was “small but significant hypoglycemic effects”. In addition, in data set [6] (at 3 h, p < 0.005), the “BG level at largest drop” value is listed as “around 7.79 mmol/L”.

Consider `O=C(N[C@@H](Cc1ccc(F)cc1)C(=O)N1CCC(O)CC1)c1cc2cc(Cl)ncc2[nH]1` [PSN-357], for which the IC50 in data set [1] (Hepatocyte, 1 h, isolated rat hepatocytes, 60-min incubation with 0.3 nM glucagon, read-out: IC50 (glycogenolysis inhibition, rat hepatocytes)) was found to be 10.7 ± 2.73 µM. Besides, in data set [2] (Homo sapiens, HepG2, 1 h), the IC50 came out at 3.1 ± 0.37 µM. In addition, in data set [3], the “stability in mouse plasma (in words)” value is “relatively stable”. Also, in data set [4], the “metabolic stability in MLM (in words)” value was “good metabolic stability”, the CLint scaled at 10 μM is less than 38 mL/min/kg, the half-life at 10 μM was greater than 2.42 h and the microsomal CLint at 10 μM was less than 9.6 µL/min/mg. Also, the “Cmax, liver” value in data set [5] (liver tissue) was 6677.85 ng/mL. Besides, the “AUC0-t, liver” value in data set [5] (liver tissue, 5 mg/kg) was found to be 9711.94 ng·h/mL. For the same compound, in data set [5] (male, C57 BL/6, mouse, liver and plasma, read-out: AUCliver/AUCplasma ratio), the Kp turned out to be 10.1. Moreover, in data set [5] (setting [7]), the MRT last was determined as 4.52 h. Also, in data set [5] (setting [8]), the AUC(0-t) amounted to 9710 ng·h/mL. Besides, the MRT last in data set [5] (setting [9]) amounted to 3.18 h. The peak level in data set [5] (setting [10]) (Cmax) was 628 ng/mL. Also, in data set [5] (setting [11]), the AUC(0-t) was determined as 965 ng·h/mL. For the same compound, in data set [5] (plasma, 5 mg/kg), the “AUC0-t, plasma” value came out at 965.16 ng·h/mL and the “Cmax, plasma” value stood at 628.35 ng/mL. Moreover, in data set [5] (plasma, perhaps due to enterohepatic circulation), the “time of secondary peak in plasma” value was 60 min. Besides, the “hypoglycemic effect (in words)” value in data set [6] (n = 10) is given as “significantly reduc the blood glucose”. Moreover, the blood glucose (BG) nadir in data set [6] (at 1 h, p < 0.005 vs control ob/ob mice) turned out to be 6.36 ± 1.46 mM.

Usually IC50 stands for the concentration at which inhibition is half-maximal. The CLint scaled is the capacity of the preparation to metabolise the compound, expressed as a volume cleared per time. Read a high CLint scaled as rapid turnover. By half-life is commonly meant the time in which the quantity being followed falls by half. A high value points to slow decline. Usually microsomal CLint stands for the capacity of the preparation to metabolise the compound, expressed as a volume cleared per time. For orientation: Cmax means the maximum level reached in the sampled fluid or tissue.

The values above are taken from PMC5320518, “Novel Liver-targeted conjugates of Glycogen Phosphorylase Inhibitor PSN-357 for the Treatment of Diabetes: Design, Synthesis, Pharmacokinetic and Pharmacological Evaluations” (Scientific Reports, 2017).
